From patent EP4603492A1, “SULFONAMIDE COMPOUND AND HARMFUL-ARTHROPOD-CONTROLLING COMPOSITION CONTAINING SAME” (Sumitomo Chemical Company, Limited, priority 2022, dated 2024)

Columns and labels:
Type in all cases: in vivo
[1] = system: cotton aphids (Aphis gossypii); test: Test method 1: spray on cucumber seedlings infested with cotton aphids (Formulation Example 1); conditions: 120 h, Test Example 1-1, spray 10 mL/seedling, 5 days after spraying, 25°C, read-out: control value
Procedure: (§1) Each test compound is formulated according to the method mentioned in Formulation Example 1 to obtain each formulation, and water containing 0.03% by volume of Shindaine (registered trademark) is added thereto to prepare a diluted solution containing a prescribed concentration of each test compound.
Approximately 30 cotton aphids (Aphis gossypii) (all stages of life) are released onto cucumber (Cucumis sativus) seedlings (on the developmental stage of the second true leaf) planted in a container. After 1 day, each of the diluted solutions is sprayed over the seedlings in a ratio of 10 mL/seedling. After additional 5 days, the number of the surviving insects is examined and the control value is calculated by the following equation. Control value (%) = {1−(Cb×Tai)/(Cai×Tb)} × 100 [formula] where symbols in the equation represent the following meanings: • Cb: Number of test insects in non-treated area; • Cai: Number of surviving insects at the time of the investigation in non-treated area; • Tb: Number of test insects in treated area; and • Tai: Number of surviving insects at the time of the investigation in treated area.
Here, the "non-treated area" represents an area where the same treatment procedure as that of the treated area is carried out except for not using each test compound.
The test was carried out by making the prescribed concentration 500 ppm and using the following present compounds as a test compound according to the test method 1.

[2] = system: common cutworm (Spodoptera litura); test: Test method 3: sprayed cabbage leaves, 2nd instar larvae of common cutworm (Formulation Example 1); conditions: 120 h, Test Example 3-1, spray 20 mL/seedling, after 5 days, 25°C
Procedure: as §1
(§2) Each of the diluted solutions is sprayed over cabbage (Brassicae oleracea) seedlings (on the developmental stage of the second to third true leaf) planted in a container in a ratio of 20 mL/seedling. Thereafter, the stem and leaf of the seedlings are cut out, and placed in a container lined with a filter paper. Five 2nd instar larvae of common cutworm (Spodoptera litura) are released into the container. After 5 days, the number of the surviving insects is counted, and the mortality of insects is calculated by the following equation. [formula]
The test was carried out by making the prescribed concentration 500 ppm and using the following present compounds as a test compound according to the test method 3.

[3] = system: diamondback moth (Plutella xylostella); test: Test method 4: sprayed cabbage leaves, 2nd instar larvae of diamondback moth (Formulation Example 1); conditions: 120 h, Test Example 4-1, spray 20 mL/seedling, after 5 days, 25°C
Procedure: as §1
as §2, with “diamondback moth (Plutella xylostella)” for “common cutworm (Spodoptera litura)”
The test was carried out by making the prescribed concentration 500 ppm and using the following present compounds as a test compound according to the test method 4.

[4] = system: western corn rootworm (Diabrotica virgifera virgifera); test: whole plant or invertebrate; conditions: 120 h
Procedure: Each test compound is dissolved in 50 µL of a mixed solution of polyoxyethylene sorbitan monococoate and acetone (at a volume ratio of 5:95) per 1 mg of the test compound. Water containing 0.03% by volume of Shindaine (registered trademark) is added thereto to prepare a diluted solution containing a prescribed concentration of each test compound.
Young seedlings of corns (Zea mays) are immersed in each of the diluted solutions for 30 seconds. Thereafter, two seedlings are placed in a petri dish (diameter: 90 mm), and ten 2nd instar larvae of western corn rootworm (Diabrotica virgifera virgifera) are released into the dish. After 5 days, the number of the […] is counted, and the mortality of insects is calculated by the following equation. Mortality (%) = (1−Numberofdeadinsects/10) × 100 [formula]
The test was carried out by making the prescribed concentration 200 ppm and using the following present compounds as a test compound according to the test method 5.

[5] = system: German cockroach (Blattella germanica); test: Test method 6: coated container contact test, German cockroach male adults; conditions: 72 h, read-out: mortality of insects
Procedure: An acetone solution prepared by making the concentration of the test compound 800 ppm is poured into a 50 mL container, and the inner face of the container is uniformly coated with the test compound so as to make the coating amount of 40 mg/m^2, followed by drying.
Five German cockroach (Blattella germanica) male adults are released into the container, and the container is then covered with a lid. After the prescribed time is elapsed, the state of the German cockroach are examined. The mortality of insects is calculated by the following equation. [formula]
The test was carried out by making the prescribed elapsed time 3 days and using the following present compounds as a test compound according to the test method 6.

[6] = system: houseflies (Musca domestica); test: Test method 8: coated container contact test, adult male houseflies; conditions: 24 h, read-out: mortality of insects
Procedure: An acetone solution prepared by making the concentration of the test compound 800 ppm is poured into a 20 mL container, and the inner face of the container is uniformly coated with the test compound so as to make the coating amount of 40 mg/m^2, followed by drying.
Five adult male houseflies (Musca domestica) are released into the container, and the container is then covered with a lid. After the prescribed time is elapsed, the state of the houseflies are examined. The mortality of insects is calculated by the following equation. [formula]
The test was carried out by making the prescribed elapsed time 1 day and using the following present compounds as a test compound according to the test method 8.

[7] = system: common cutworm (Spodoptera litura); test: Test method 9: sprayed cabbage seedlings, 3rd instar larvae of common cutworm (Formulation Example 5); conditions: 144 h, Test Example 9-1, spray 20 mL/seedling, after 6 days, 25°C
Procedure: (§3) Each test compound is formulated according to the method mentioned in Formulation Example 5 to obtain each formulation, and water containing 0.03% by volume of Shindaine (registered trademark) is added thereto to prepare a diluted solution containing a prescribed concentration of each test compound.
as §2, with “third” for “second”, “fourth” for “third”, “ten 3rd” for “the stem and leaf of the seedlings are cut out, and placed in a container lined with a filter paper. Five 2nd”, “6” for “5”, “counted” for “counted,”
The test was carried out by making the prescribed concentration 200 ppm and using the following present compounds as a test compound according to the test method 9.

[8] = system: diamondback moth (Plutella xylostella); test: Test method 10: sprayed cabbage seedlings, 3rd instar larvae of diamondback moth (Formulation Example 5); conditions: 120 h, spray 20 mL/seedling, after 5 days, 25°C; for mortality at 200 ppm: Test Example 10-1, 200 ppm; for mortality at 50 ppm: Test Example 10-2, 50 ppm
Procedure: as §3
Each of the diluted solutions is sprayed over cabbage (Brassicae oleracea) seedlings (on the developmental stage of the third to fourth true leaf) planted in a container in a ratio of 20 mL/seedling. Thereafter, ten 3rd instar larvae of diamondback moth (Plutella xylostella) are released into the container. After 5 days, the number of the surviving insects is counted, and the mortality of insects is calculated by the following equation. [formula]
The test was carried out by making the prescribed concentration 200 ppm and using the following present compounds as a test compound according to the test method 10.
The test was carried out by making the prescribed concentration 50 ppm and using the following present compounds as a test compound according to the test method 10.

[9] = system: cotton aphids (Aphis gossypii); test: whole plant or invertebrate; conditions: topical, 120 h, read-out: control value
Procedure: Each test compound is formulated according to the method mentioned in Formulation Example 5 to obtain each formulation, and water containing 0.03% by volume of […] (registered trademark) is added thereto to prepare a diluted solution containing a prescribed concentration of each test compound. Approximately thirty cotton aphids (Aphis gossypii) (all stages of life) are released onto cucumber (Cucumis sativus) seedlings (on the developmental stage of the second true leaf) planted in a container. After 1 day, each of the diluted solutions is sprayed over the seedlings in a ratio of 10 mL/seedling. After additional 5 days, the number of the surviving insects is examined and the control value is calculated by the following equation. Control value (%) = {1-(Cb×Tai)/(Cai×Tb)} × 100 [formula] where symbols in the equation represent the following meanings: • Cb: Number of test insects in non-treated area; • Cai: Number of surviving insects at the time of the investigation in non-treated area; • Tb: Number of test insects in treated area; and • Tai: Number of surviving insects at the time of the investigation in treated area. Here, the "non-treated area" represents an area where the same treatment procedure as that of the treated area is carried out except for not using each test compound. The test was carried out by making the prescribed concentration 200 ppm and using the following present compounds as a test compound according to the test method 11. […] The test was carried out by making the prescribed concentration 50 ppm and using the following present compounds as a test compound according to the test method 11.

[10] = system: common house mosquito (Culex pipiens pallens); test: Test method 12: final instar larvae of common house mosquito released into diluted solution; conditions: 24 h, read-out: control value
Procedure: Each test compound is formulated according to the method mentioned in Formulation Example 1 to obtain each formulation, and water is added thereto to prepare a diluted solution containing a prescribed concentration of each test compound.
Thirty final instar larvae of common house mosquito (Culex pipiens pallens) are released into the diluted solution and, after 1 day, the state of the common house mosquito larvae is examined and the mortality of insects is calculated by the following equation. [formula]
The test was carried out by making the prescribed concentration 3.5 ppm and using the following present compounds as a test compound according to the test method 12.

Structure (SMILES) | mortality at 500 ppm [1] [%] | mortality at 500 ppm [2] [%] | mortality at 500 ppm [3] [%] | mortality at 200 ppm [4] [%] | mortality at 40 mg/m2, 40 mg/m2 [5] [%] | mortality at 40 mg/m2, 40 mg/m2 [6] [%] | mortality at 200 ppm [7] [%] | mortality at 200 ppm [8] [%] | mortality at 50 ppm [8] [%] | mortality at 50 ppm [9] [%] | mortality at 200 ppm [9] [%] | mortality at 3.5 ppm [10] [%]
CNS(=O)(=O)c1c(-c2cnc(OCC(F)(F)C(F)(F)F)cn2)nc2ccc(Br)cn12 [compound 1] | ≥ 90 | ≥ 80 | ≥ 80 | ≥ 80 | ≥ 80 | ≥ 80 | ≥ 80 | ≥ 80 | ≥ 80 | ≥ 90 | ≥ 90 | ≥ 90
CCNS(=O)(=O)c1c(-c2cnc(OCC(F)(F)C(F)(F)F)cn2)nc2ccc(Br)cn12 [compound 2] | ≥ 90 | ≥ 80 | ≥ 80 | ≥ 80 | ≥ 80 | ≥ 80 | ≥ 80 | ≥ 80 | ≥ 80 | ≥ 90 | ≥ 90 | ≥ 90
CNS(=O)(=O)c1c(-c2ccc(OCC(F)(F)C(F)F)nn2)nc2ccc(I)cn12 [compound 3] | ≥ 90 | ≥ 80 | ≥ 80 | ≥ 80 |  |  | ≥ 80 | ≥ 80 | ≥ 80 | ≥ 90 | ≥ 90 | 
CN(C)S(=O)(=O)c1c(-c2ccc(OCC(F)(F)C(F)F)nn2)nc2ccc(I)cn12 [compound 4] | ≥ 90 | ≥ 80 | ≥ 80 |  |  |  | ≥ 80 | ≥ 80 | ≥ 80 |  |  | 
